The text below walks through data of patent publication US7378387B2, “Method of suppressing immune response by reducing intracellular content of glutathione in macrophages and monocytes” (Ajinomoto Co., Inc., priority 1997, dated 2008).

Assay [1] has as its system peritoneal exudate cells (macrophages). In words: Induction of oxidative or reductive macrophages by administration, monochlorobimane/ACAS (Example 9). Type of assay: in vivo, DBA/2 mice. The note with it: for type of macrophages induced (monochlorobimane, ACAS): Day 1 and Day 2, cells harvested 20 hours later, 20 μg (NAC-OMe)2 or (NAC)2, 10 μg acetylgliotoxin, 2 mg NAC intraperitoneally, 40 μg dexamethasone subcutaneously. As to the method:
(§1) This was clarified by harvesting peritoneal exudate cells 20 hours after the completion of the administration, adhering the cells to the plastic surface, then reacting the cells with 10 μM of monochlorobimane at 37° C. for 30 minutes, and analyzing the reaction product with ACAS. The increase in the amounts of oxidative macrophages can easily be determined visually from the fact that almost no reaction product with monochlorobimane is observed, namely, a gray or blue image is provided, and the increase in the amounts of reductive macrophages from the fact that a red or yellow image is provided respectively. […] Meanwhile, the same examination was conducted by harvesting peritoneal exudate cells after 20 hours of the administration of 2 mg of N-acetylcystine (NAC).

Assay [2] deals with NO. In words: NO production from macrophages induced through administration (Example 9, Table 1). Format: in vivo, DBA/2 mice. The note with it: LPS 100 ng/ml, IFNγ 100 units/ml. As to the method: A stimulator was added to 1×10^5 MΦ, and the incubation was conducted at 37° C. for 2 days in a CO2 incubator. After the completion of the centrifugation, the culture supernatant was collected.
One hundred microliters of a Griess-Romijn reagent (supplied by Waco Pure Chemical Industries, Ltd.) adjusted to a concentration of 50 mg/ml in distilled water were added to 100 μl of the culture supernatant, and the reaction was conducted at room temperature for 15 minutes. After the completion of reaction, an absorbance of 540 nm was measured. NaNO2 was used as a standard.
as §1
(§2) Thus, the peritoneal exudate adherent cells were incubated in the following manner, and the amounts of NO and IL-12 produced in the culture supernatant were measured. With respect to the amount of IL-6, the amount of IL-6 produced spontaneously in the absence of a stimulator was measured.
(§3) Cells: The peritoneal exudate adherent cells obtained by the stimulation, namely, the macrophages were added to a 96-well microplate in an amount of 1×10^5 cells/200 μl each.
(§4) Medium: Phenol red-free RPMI 1640: 200 μl/well
(§5) LPS: Lipopolysaccharide (made by Sigma Co.) (origin: E. coli) 100 ng/ml

Assay [3] has as its system IL-6. Description: IL-6 production from macrophages induced through administration (Example 9, Table 1). Type of assay: in vivo, DBA/2 mice. Further details: concentration or dose not given beside the values. The note with it: produced spontaneously in the absence of a stimulator. The protocol:
A stimulator was added to 1×10^6 MΦ, and the incubation was conducted at 37° C. for 2 days in a CO2 incubator. After centrifugation, the culture supernatant was collected.
The amount of IL-6 was determined using IL-6 dependent mouse hybridoma MH60 cells (J. Eur. Immunol., vol. 18, p. 951, 1988). One hundred microliters of the culture supernatant were added to 100 μl of the MH60 cell suspension adjusted to 1×10^5 cells/ml in a 10% FCS-containing RPMI medium, and the mixed solution was incubated at 37° C. for 2 days in a CO2 incubator. Subsequently, 10 μl of MTT (supplied by Sigma Co.) solution adjusted to a concentration of 5 mg/ml in the same medium were added thereto, and the reaction was conducted at 37° C. for 5 hours. After the completion of the reaction, the centrifugation was conducted. The supernatant (160 μl) was removed, and 100 μl of a mixture of hydrochloric acid and propanol were added to the residue. The suspension was conducted using a pipetman to dissolve the cells. Immediately after the dissolution, an absorbance of 570 nm was measured with an immunometer (supplied by Bio-Rad).
as §1, §2, §3, §4

For assay [4], the system named is IL-12. In words: IL-12 production from macrophages induced through administration (Example 9, Table 1). Format: in vivo, DBA/2 mice. The settings on record: LPS 100 ng/ml, IFNγ 100 units/ml. The protocol:
The amount of IL-12 was determined through bioassay using cells of human T cell strain 2D6 (J. Leukocyte Biology, vol. 61, p. 346, 1997).
2D6 cells which had been incubated in an RPMI 1640 medium containing 500 pg/ml of recombinant human IL-12, 50 μM of 2-mercaptoethanol and 10% FCS (fetal calf serum) were moved to a tube, and centrifugally washed three times with the above-mentioned medium without IL-12 and cell density was adjusted to 1×10^5/ml. The cell suspension was added in an amount of 100 μl each to a 96-well flat bottom plate containing a sample serially diluted in advance with an RPMI 1640 medium containing 50 μM of 2-mercaptoethanol and 10% FCS in an amount of 100 μl each. Subsequently, the mixture was charged into a 5% […] incubator of 37° C., and incubated for 48 hours. For final 6 hours, ^3H-TdR was pulsed (a substance adjusted to 370 kBq/ml in an RPMI 1640 medium containing 50 μM of 2-mercaptoethanol and 10% FCS was added in an amount of 50 μl each). The cells a harvested, and the radioactivity was measured using a β counter (Matrix 96, supplied by Packard).
The increase in the amounts of oxidative macrophages can easily be determined visually from the fact that almost no reaction product with monochlorobimane is observed, namely, a gray or blue image is provided, and the increase in the amounts of reductive macrophages from the fact that a red or yellow image is provided respectively. […] Meanwhile, the same examination was conducted by harvesting peritoneal exudate cells after 20 hours of the administration of 2 mg of N-acetylcystine (NAC).
as §2, §3, §4, §5

For assay [5], the system named is spontaneous onset of insulin-dependent diabetes mellitus. In words: Onset of diabetes mellitus in NOD mice dosed at age 3 to 6 weeks (Example 23). The settings on record: three times per week, nine times; for Frequency (%) of onset of diabetes mellitus, on age 18 weeks: saline 50; for Frequency (%) of onset of diabetes mellitus, on age 22 weeks: saline 80. Format: in vivo. The protocol: NOD mice purchased from Nippon Clair, Co. were naturally mated together. Among the off spring mice, a colony of NOD mice with a high frequency of the spontaneous onset of insulin-dependent diabetes mellitus was established. Female NOD mice from the colony were used for the present experiment. […] Urine glucose was detected, using Uropaper (BM Test Glucose 5000, manufactured by Yamanouchi Pharmaceuticals, Co. Ltd.). Chemical agents were administered intraperitoneally, unless otherwise stated. […] (NAC)2 and (NAC-OMe)2 were at a single dose of 20 μg/animal; and NAC and GSHOEt were at a single dose of 2 μg/animal; and a single dose of lentinan was 0.1 mg/kg.

The test system is the same in assay [6]. In words: Onset of diabetes mellitus in NOD mice dosed at age 3 to 6 and 9 to 11 weeks (Example 24). Format: in vivo. The note with it: doses as in the table line, 15 times in total, judged on week 22, saline 60. The text has this:
NOD mice purchased from Nippon Clair, Co. were naturally mated together. Among the off spring mice, a colony of NOD mice with a high frequency of the spontaneous onset of insulin-dependent diabetes mellitus was established. Female NOD mice from the colony were used for the present experiment. […] Urine glucose was detected, using Uropaper (BM Test Glucose 5000, manufactured by Yamanouchi Pharmaceuticals, Co. Ltd.). The onset was judged on week 22.

Molecules are shown by their SMILES.

For the molecule `CC(=O)N[C@@H](CSSC[C@H](NC(C)=O)C(=O)O)C(=O)O` [(NAC)2, N,N′-diacetylcystine], the “type of macrophages induced (monochlorobimane, ACAS)” value (shortened to “type of macrophages induced”) in assay [1] is given as “Oxidative macrophages were induced”. Also, in assay [2], the “NO, amount produced relative to that of control group” value (shortened to “NO, amount produced relative to that”) turned out to be 18%. The “IL-6, amount produced relative to that of control group” value (“IL-6, amount produced relative to that” below) in assay [3] is reported as 340%. Besides, the “IL-12, amount produced relative to that of control group” value (“IL-12, amount produced relative to that” below) in assay [4] came out at 15%. In addition, in assay [5] (intraperitoneal), the “Frequency (%) of onset of diabetes mellitus, on age 18 weeks” value (“Frequency (%) of onset … on age 18 weeks” for short) was found to be 60% and the “Frequency (%) of onset of diabetes mellitus, on age 22 weeks” value (“Frequency (%) of onset … on age 22 weeks” below) amounted to 80%.
As to `COC(=O)[C@H](CSSC[C@H](NC(C)=O)C(=O)OC)NC(C)=O` [(NAC-OMe)2, N,N′-diacetylcystine dimethyl ester], in assay [1], the “type of macrophages induced” value is listed as “Oxidative macrophages were induced”. Moreover, the “induction of oxidative macrophages on ACAS” value in assay [1] (intraperitoneally 20 μg/0.5 ml/h each, twice a week for three weeks, 9-11 weeks of age) is “induction of oxidative macrophages was confirmed”. In addition, in assay [2], the “NO, amount produced relative to that” value came to 12%. For the same molecule, in assay [3], the “IL-6, amount produced relative to that” value amounted to 320%. In assay [4], the “IL-12, amount produced relative to that” value is recorded as 11%. Moreover, in assay [5] (intraperitoneal), the “Frequency (%) of onset … on age 18 weeks” value was 70% and the “Frequency (%) of onset … on age 22 weeks” value is 80%. The “Frequency (%) of onset of diabetes mellitus” value in assay [6] (intraperitoneal) amounted to 70%.
With `CCOC(=O)CNC(=O)[C@H](CS)NC(=O)CC[C@H](N)C(=O)O` [GSH-OEt, glutathione monoethyl ester], in assay [5] (intraperitoneal), the “Frequency (%) of onset … on age 18 weeks” value is listed as 0% and the “Frequency (%) of onset … on age 22 weeks” value turned out to be 5%. Besides, the “Frequency (%) of onset of diabetes mellitus” value in assay [6] (intraperitoneal) worked out at 0%.
Consider `CC(=O)N[C@@H](CS)C(=O)O` [NAC, N-acetylcysteine, reference compound], for which, in assay [1], the “type of macrophages induced” value is listed as “reductive macrophages were induced”. For the same molecule, the “NO, amount produced relative to that” value in assay [2] was 172%. For the same molecule, in assay [3], the “IL-6, amount produced relative to that” value worked out at 42%. Besides, the “IL-12, amount produced relative to that” value in assay [4] is 920%. Further, the “Frequency (%) of onset … on age 18 weeks” value in assay [5] (intraperitoneal) worked out at 10%; in assay [5] (oral), 30%. Further, the “Frequency (%) of onset … on age 22 weeks” value in assay [5] (intraperitoneal) is 20%; in assay [5] (oral), 40%. In assay [6] (oral), the “Frequency (%) of onset of diabetes mellitus” value was found to be 40%.
